Numbering of substitutions follows the chain as printed. Where “and” joins values, the source holds several entries; their conditions need not be identical. Equal entries are not always repeated. Where two headings read alike, the source gives them in different places.
Key:
5-HT3A receptors [1] = biological target: T1, 5-HT3A receptors (Mus musculus, UniProt P23979); conditions: discussion; compound not tested in this paper; no reference given; cited from earlier work
T1 construct: expressed in transfected cells; host or cells: Xenopus laevis oocytes injected with cRNA (pGEMHE)
T1 sequence (P23979 24-489): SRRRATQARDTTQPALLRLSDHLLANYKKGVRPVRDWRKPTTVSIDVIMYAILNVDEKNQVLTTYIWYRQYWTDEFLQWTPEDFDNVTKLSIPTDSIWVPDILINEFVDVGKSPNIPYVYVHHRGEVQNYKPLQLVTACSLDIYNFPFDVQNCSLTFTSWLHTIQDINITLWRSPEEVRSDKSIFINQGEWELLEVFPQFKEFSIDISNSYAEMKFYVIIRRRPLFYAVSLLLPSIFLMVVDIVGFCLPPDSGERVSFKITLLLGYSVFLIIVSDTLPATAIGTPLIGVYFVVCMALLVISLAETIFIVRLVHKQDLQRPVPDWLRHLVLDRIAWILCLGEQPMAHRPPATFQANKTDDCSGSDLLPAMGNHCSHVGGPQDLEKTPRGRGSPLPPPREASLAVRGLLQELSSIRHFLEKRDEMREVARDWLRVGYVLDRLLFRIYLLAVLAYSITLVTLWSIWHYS

5-HT3A receptors [2] = biological target: T1, 5-HT3A receptors; experiment: Agonist-induced currents in Xenopus oocytes expressing 5-HT3A receptors (OpusXpress electrophysiology); format: cell-based; conditions: for agonist character: 5-HT3A receptors; for Relative efficacy Rmax = Imax drug / Imax 5-HT: maximal concentration; for EC50: holding potential -60 mV; for EC50 relative to Ki: EC50 fold higher than Ki; for Rmax, approximate summary value: discussion, stated for 5-HT3 receptors (5-HT3A and 5-HT3AB) without distinction
Description: (§1) Harvested stage V–VI Xenopus oocytes were washed in six changes of ND96 (96 mM NaCl, 2 mM KCl, 1 mM MgCl2, 1.8 mM CaCl2, 5 mM HEPES, pH 7.5), de-folliculated in 1.5 mg ml^− 1 collagenase Type 1A for approximately 2 h. Enzyme treatment was terminated by washing in six changes of ND96 and oocytes were stored in ND96 containing 2.5 mM sodium pyruvate, […] and 0.7 mM theophylline.
(§2) Mouse 5-HT3A (accession number: AY605711) or 5-HT3B (accession number: NM_020274, kindly provided by Ewen Kirkness) subunit cDNAs were cloned into pGEMHE for oocyte expression ([Liman et al., 1992]). cRNA was in vitro transcribed from linearised (NheI) plasmid cDNA template using the mMessage mMachine T7 kit (Ambion, Austin, Texas, USA). Stage V and VI oocytes were injected with 50 ng–100 ng cRNA, and recorded from 1–4 days post-injection. For expression in HEK 293 cells, 5-HT3 receptor subunit cDNAs were cloned into pcDNA3.1 (Invitrogen Ltd., Paisley, UK.). Mutagenesis reactions were performed using the Kunkel method and confirmed by DNA sequencing. Cells were transfected using calcium phosphate precipitation at 80–90% confluency ([Jordan et al., 1996]). Following transfection cells were incubated for 3–4 days before assay.
(§3) Agonist-induced currents were recorded at 22–25 °C from individual oocytes using the OpusXpress system (Molecular Devices Axon Instruments, Union City, CA). […] The holding potential was − 60 mV.

5-HT3A receptors [3] = biological target: T1, 5-HT3A receptors; experiment: [3H]granisetron binding to membranes of transfected HEK 293 cells, 5-HT3A receptors; conditions: for Ki relative to the Ki for 5-HT: 5-HT3A receptors, fold greater than 5-HT; for Ki: WT 5-HT3A receptors, HEK 293 membranes, 0.5 nM [3H]granisetron, 4 °C
Description: as §2
(§4) This was undertaken in HEK 293 cells which provide an established and robust method of studying ligand binding. Methods were as previously described ([Lummis et al., 1993]), with minor modifications. Briefly, transfected HEK 293 cells were washed twice with phosphate buffered saline (PBS) at room temperature and scraped into 1 ml of ice-cold HEPES buffer (10 mM, pH 7.4) containing the following proteinase inhibitors (PI): 1 mM EDTA, 50 μg ml^− 1 soybean trypsin inhibitor, 50 μg/ml bacitracin and 0.1 mM phenylmethylsulphonyl fluoride. […] Competition binding was performed using ligand concentrations from 0.1 μM–10 mM. Reactions were incubated for at least 1 h at 4 °C and terminated by vacuum filtration using a Brandel cell harvester onto GF/B filters pre-soaked in 0.3% polyethyleneimine. Radioactivity was determined by scintillation counting using a Beckman LS6000SC (Fullerton, California, USA). Competition binding data were analyzed by iterative curve fitting (GraphPad Prism v3.02, GraphPad Software, San Diego, California, USA), according to the equation: y=Bmin+Bmax−Bmin/1+10^[L]−logIC50 where Bmin is the lowest total binding, Bmax is the maximum specific binding at equilibrium, [L] is the concentration of competing ligand and IC50 is the concentration of competing ligand that blocks half of the specific bound radioligand. Ki values were estimated from IC50 values using the Cheng–Prusoff equation: Ki=IC50/1+[L]/Kd
(§5) where Ki is the equilibrium dissociation constant for binding of the unlabeled antagonist, [L] is the concentration of radioligand and Kd is the equilibrium dissociation constant of the radioligand.

5-HT3AB receptors [4] = biological target: T2, 5-HT3AB receptors (Mus musculus, UniProt P23979+Q9JHJ5); experiment: [3H]granisetron binding to membranes of transfected HEK 293 cells, 5-HT3AB receptors
T2 construct: expressed in transfected cells; host or cells: Xenopus laevis oocytes injected with cRNA (pGEMHE)
T2 sequence (P23979 24-489): T1 sequence (P23979 24-489)
T2 sequence (Q9JHJ5 22-437): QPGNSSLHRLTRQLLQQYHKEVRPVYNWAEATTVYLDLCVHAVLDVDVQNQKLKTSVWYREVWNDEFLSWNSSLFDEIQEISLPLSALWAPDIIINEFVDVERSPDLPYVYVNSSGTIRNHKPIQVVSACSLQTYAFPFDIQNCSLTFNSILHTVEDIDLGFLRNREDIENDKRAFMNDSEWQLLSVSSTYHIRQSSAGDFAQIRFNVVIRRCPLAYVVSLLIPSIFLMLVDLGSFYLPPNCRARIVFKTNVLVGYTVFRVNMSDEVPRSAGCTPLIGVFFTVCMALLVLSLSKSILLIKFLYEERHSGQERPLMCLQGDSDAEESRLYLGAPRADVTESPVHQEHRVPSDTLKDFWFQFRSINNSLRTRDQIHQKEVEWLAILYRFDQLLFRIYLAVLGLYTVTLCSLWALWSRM
Description: as §2, §4, §5

5-HT3AB receptors [5] = biological target: T2, 5-HT3AB receptors; experiment: Agonist-induced currents in Xenopus oocytes expressing 5-HT3AB receptors (OpusXpress electrophysiology); format: cell-based; conditions: for agonist character: 5-HT3AB receptors; for Relative efficacy Rmax = Imax drug / Imax 5-HT: maximal concentration; for EC50: holding potential -60 mV
Description: as §1, §2, §3

[6] = biological target: T3, N128A mutant 5-HT3A receptors (Mus musculus, UniProt P23979, N128A); experiment: [3H]granisetron competition binding, N128A mutant 5-HT3A receptors
T3 construct: expressed in transfected cells; host or cells: HEK 293 cells (pcDNA3.1); Kunkel mutagenesis
T3 sequence (P23979 24-489 N128A): T1 sequence (P23979 24-489) with N105A
Description: as §2, with “Cells were transfected using calcium phosphate precipitation at 80–90% confluency ([Jordan et al., 1996]). Following transfection cells were incubated for 3–4 days before assay.” left out
(§6) This was undertaken in HEK 293 cells which provide an established and robust method of studying ligand binding. […] Radioactivity was determined by scintillation counting using a Beckman LS6000SC (Fullerton, California, USA). Competition binding data were analyzed by iterative curve fitting (GraphPad Prism v3.02, GraphPad Software, San Diego, California, USA), according to the equation: y=Bmin+Bmax−Bmin/1+10^[L]−logIC50 where Bmin is the lowest total binding, Bmax is the maximum specific binding at equilibrium, [L] is the concentration of competing ligand and IC50 is the concentration of competing ligand that blocks half of the specific bound radioligand. […]

[7] = biological target: T4, E236A mutant 5-HT3A receptors (Mus musculus, UniProt P23979, E236A); experiment: [3H]granisetron competition binding, E236A mutant 5-HT3A receptors
T4 construct: expressed in transfected cells; host or cells: HEK 293 cells (pcDNA3.1); Kunkel mutagenesis
T4 sequence (P23979 24-489 E236A): T1 sequence (P23979 24-489) with E213A
Description: as §2, with “Cells were transfected using calcium phosphate precipitation at 80–90% confluency ([Jordan et al., 1996]). Following transfection cells were incubated for 3–4 days before assay.” left out
as §6

[8] = 5-HT3A receptors in Xenopus oocytes
[9] = EC50, 5-HT3A receptors in Xenopus oocytes
[10] = Ki, displacement of [3H]granisetron binding
[11] = 5-HT3AB receptors in Xenopus oocytes
[12] = 5-HT3AB receptors in Xenopus oocytes, read-out: EC50
[13] = read-out: Ki, displacement of [3H]granisetron binding
[14] = 5-HT3AB receptors, HEK 293 membranes, 0.5 nM [3H]granisetron, 4 °C, read-out: Ki, displacement of [3H]granisetron binding

Row | SMILES | agonist character (5-HT3A receptors [2]) | Relative efficacy Rmax = Imax drug / Imax 5-HT (5-HT3A receptors [2]; [8]) | EC50 (5-HT3A receptors [2]; [9]) | Ki relative to the Ki for 5-HT (5-HT3A receptors [3]) [fold] | Ki (5-HT3A receptors [3]; [10]) | Ki (5-HT3AB receptors [4]) [µM] | nH (Hill slope) (5-HT3A receptors [2]; [8]) | Rmax, approximate summary value (5-HT3A receptors [2]) | agonist character (5-HT3AB receptors [5]) | nH (Hill slope) (5-HT3AB receptors [5]; [11]) | Relative efficacy Rmax = Imax drug / Imax 5-HT (5-HT3AB receptors [5]; [11]) | further results
1 | Cc1[nH]c2ccc(O)cc2c1CCN [2-methyl-5-HT] |  |  |  |  |  |  |  |  |  |  |  | Rmax, approximate value (5-HT3A receptors [1]): ~0.2
2 | NCCc1c[nH]c2ccc(Cl)cc12 [5-ClT, 5-chlorotryptamine] | very weak partial agonist | 0.0037 | 8.1 µM and 8 µM | ~10 | 2700 ± 700 nM | 3.1 ± 1.1 |  |  |  |  |  | EC50 relative to Ki (5-HT3A receptors [2]): less than 5 fold
3 | NCCc1c[nH]c2ccc(F)cc12 [5-FT, 5-fluorotryptamine] | partial agonist | 0.64 and 0.64 ± 0.03 | 16 µM | ~10 | 800 nM and 830 nM | 1.8 ± 0.4 | 2.4 and 2.4 ± 0.5 | ~0.5 | partial agonist | 1.4 and 1.4 ± 0.3 | 0.45 and 0.45 ± 0.04 | EC50 (5-HT3AB receptors [5]; EC50, 5-HT3AB receptors in Xenopus oocytes): 27 µM; Ki [6]: 2430 ± 470 nM; Ki [7]: 1620 ± 410 nM
4 | NCCc1c[nH]c2ccc(O)cc12 [5-HT] |  |  |  |  |  |  |  |  |  | 1.4 and 1.4 ± 0.4 |  | 
5 | COc1ccc2[nH]cc(CCN)c2c1 [5-MeOT, 5-methoxytryptamine] |  |  |  | ~300 | 34900 ± 3000 nM | 21.7 ± 2.1 |  |  |  |  |  | activation of 5-HT3 receptors (5-HT3A receptors [2]; concentrations up to 10 mM, examined in 5-HT3A receptors): unable to activate
6 | Cc1ccc2[nH]cc(CCN)c2c1 [5-MeT, 5-methyltryptamine] | very weak partial agonist | 0.0023 | 60 ± 3 µM | ~100 |  | 7.7 ± 1.1 |  |  |  |  |  | EC50 relative to Ki (5-HT3A receptors [2]): less than 5 fold
7 | N=C(N)NC(=N)Nc1cccc(Cl)c1 [mCPBG, m-chlorophenylbiguanide] | partial agonist | 0.74 ± 0.07 |  |  |  |  | 2.3 and 2.3 ± 0.4 | ~0.8 | full agonist | 1.6 and 1.6 ± 0.4 | 0.92 ± 0.09 | EC50 (5-HT3A receptors [2]; 5-HT3A receptors in Xenopus oocytes, read-out: EC50): 0.5 µM; EC50 (5-HT3AB receptors [5]; [12]): 1.1 µM; Ki (5-HT3A receptors [3]; [13]): 10 ± 3 nM; Ki (5-HT3AB receptors [4]; [14]): 0.012 ± 0.004 µM
8 | NCCc1c[nH]c2ccccc12 [tryptamine] | partial agonist | 0.15 |  | ~50 |  |  | 2.5 and 2.5 ± 0.5 | ~0.15 | partial agonist | 1.8 and 1.8 ± 0.5 | 0.14 ± 0.02 | EC50 (5-HT3A receptors [2]; 5-HT3A receptors in Xenopus oocytes, mean ± SEM, read-out: pEC50 (converted)): 123 µM; Relative efficacy Rmax = Imax drug / Imax 5-HT (5-HT3A receptors [2]; 5-HT3A receptors in Xenopus oocytes, listed as Tryptamine): 0.15 ± 0.06; EC50 relative to both 5-HT and 5-FT (5-HT3A receptors [2]; EC50 fold higher than 5-HT and 5-FT, both receptor types): 10–100 fold; potency (EC50) relative to 5-HT (5-HT3A receptors [2]; fold less potent / EC50 higher than 5-HT, stated for 5-HT3A and 5-HT3AB receptors together): ~100 fold; EC50 (5-HT3AB receptors [5]; 5-HT3AB receptors in Xenopus oocytes, mean ± SEM, read-out: pEC50 (converted)): 60.3 µM; EC50 (5-HT3AB receptors [5]; [12]): 61 µM; Ki (5-HT3A receptors [3]; [13]): 4800 ± 900 nM; Ki (5-HT3AB receptors [4]; [14]): 15.5 ± 3.5 µM

— publication PMC2649378 (European Journal of Pharmacology, 2008)
